From US10194854B2, “Method for non-invasive monitoring of fluorescent tracer agent with background separation corrections” (MediBeacon Inc., priority 2017, dated 2019)

Test: Absorption and emission spectra of MB-102 (FIG. 3)
Type: physicochemical
Source text: By way of illustrative example, FIG. 3 is a graph summarizing the absorption spectra for HbO2 and Hb, as well as the absorption and emission spectra of frequency spectra of MB-102, an exogenous fluorescent agent in one aspect. Emission spectra for a blue LED light source and a green LED light source are also shown superimposed over the other spectra of FIG. 3. In this aspect, the system 200 may include a blue LED as the first light source 218, and the excitatory wavelength for the system 200 may be the isosbestic wavelength of about 450 nm. […] However, at wavelengths above about 500 nm, the HbO2/Hb spectra are less steeply sloped, and a broader band light source including, but not limited to, an LED with a bandpass filter may suffice for use as a first light source 218.
In another aspect, the excitatory wave length may be selected to enhance the contrast in light absorbance between the exogenous fluorescent agent and the chromophores within the tissues of the patient 202. […] Without being limited to any particular theory, a higher proportion of light illuminating the tissue of the patient 202 at a wavelength of about 450 nm will be absorbed by the MB-102 relative to the HbO2 and Hb, thus enhancing the efficiency of absorption by the MB-102 and reducing the intensity of light at the excitatory wavelength needed to elicit a detectable fluorescence signal. […]

light absorption relative to the light absorption of the HbO2 and the Hb (at the isosbestic wavelength of 452 nm): more than three-fold higher | emission peak wavelength (emission spectrum): about 550 nm
SMILES: Nc1nc(C(=O)N[C@H](CO)C(=O)O)c(N)nc1C(=O)N[C@H](CO)C(=O)O [MB-102]
